Target: T1, GATOR2/Sestrin2 complexes (Homo sapiens, UniProt P58004)
T1 construct: endogenous in cells; host or cells: HEK293T cells stably expressing FLAG-WDR24 (lentiviral, pLJM60)
T1 sequence (P58004 1-480): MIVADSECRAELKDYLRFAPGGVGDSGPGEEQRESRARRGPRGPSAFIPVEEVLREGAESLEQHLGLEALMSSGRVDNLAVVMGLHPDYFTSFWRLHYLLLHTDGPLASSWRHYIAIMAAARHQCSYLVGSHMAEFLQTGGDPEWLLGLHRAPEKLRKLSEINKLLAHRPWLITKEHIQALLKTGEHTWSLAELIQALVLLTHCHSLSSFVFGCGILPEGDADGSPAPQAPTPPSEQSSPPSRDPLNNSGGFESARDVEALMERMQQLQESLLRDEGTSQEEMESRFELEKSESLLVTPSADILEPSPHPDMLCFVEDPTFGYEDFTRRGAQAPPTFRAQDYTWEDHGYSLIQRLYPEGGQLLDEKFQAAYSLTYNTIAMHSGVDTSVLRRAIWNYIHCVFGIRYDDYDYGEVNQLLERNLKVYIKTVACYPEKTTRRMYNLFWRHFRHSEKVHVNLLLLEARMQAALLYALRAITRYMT
Assay: In vitro PPI assay (Method 1; Western blot assay): Sestrin2 bound to GATOR2 after compound addition to immunoprecipitated FLAG-WDR24 complex
Type: binding
Details: 25 μM, % activity relative to leucine (25 μM = 100%)
From the text: This screening assay measured test compound activity in vitro on GATOR2/Sestrin2 complexes purified via immunoprecipitation of stably expressed FLAG-WDR24 from HEK293T cells. HEK293T cells (293 Ts) were engineered to stably express N-terminally tagged FLAG-WDR24 via transduction by lentivirus. Lentiviruses were produced by co-transfection of the lentiviral transfer vector pLJM60 with the […] into HEK-293T cells using the XTremeGene 9 transfection reagent (Roche Diagnostics). The media was changed 24 hours post-transfection to Dulbecco's Modified Eagle's media (DMEM) supplemented with 30% Inactivated Fetal Serum. The virus-containing supernatants were collected 48 and 72 hours after transfection and passed through a 0.45 μm filter to eliminate cells. Target cells in 6-well tissue culture plates were infected in media containing 8 μg/mL polybrene and spin infections were performed by centrifugation at 2,200 rpm for 1 hour. Twenty-four hours after infection, the virus was removed and the cells selected with the appropriate antibiotic. Cells were then grown in DMEM supplemented with 10% fetal bovine serum and antibiotics.
Seventy-two hours later, cells were placed in standard RPMI media formulated with no amino acids and supplemented with 5 mM Glucose (−AA RPMI, US Biological Life Sciences) for 1 hour then subsequently lysed in lysis buffer (40 mM HEPES, 1% Triton, 10 mM sodium β-glycerophosphate, 10 mM sodium pyrophosphate, 2.5 mM MgCl2 and protease inhibitors). To isolate the FLAG-WDR24/endogenous-Sestrin2 complex, crude lysate (equivalent to 2-4 mg of total protein) in a volume of 1 ml was subjected to immunoprecipitation with 30 μl of anti-flag resin (SIGMA) for 2 hours at 4° C., washed twice in cold lysis buffer plus 0.5M NaCl and resuspended in 1 ml of cold cytosolic buffer (40 mM HEPES pH 7.4, 140 mM KCl, 10 mM NaCl, 2.5 mM MgCl2, 0.1% TritonX-100). […] After the incubation period, samples were centrifuged to pellet the FLAG-WDR24/endogenous-Sestrin2 complex bound to the anti-flag resin, the supernatant was completely removed and resin was resuspended in SDS-PAGE sample buffer and boiled for 5 minutes. Samples were then processed by SDS-PAGE and western blots were performed with anti-FLAG (SIGMA) and anti-Sestrin2 (Cell Signaling Technology) antibodies as described in L. Chantranupong, et al., Cell Reports 9:1-8 (2014).
The resulting western blots were scanned and band intensities corresponding to Sestrin2 and FLAG-WDR24 were quantified using the LI-COR® imaging platform. To determine the amount of Sestrin2 bound to GATOR2 for each condition, the band intensity for Sestrin2 was normalized to the band intensity of FLAG-WDR24. […]
72 hours later, cells were placed in standard RPMI media formulated with no amino acids and supplemented with 5 mM Glucose (−AA RPMI, USBiological Life Sciences) for 1 hour then subsequently lysed in lysis buffer (40 mM HEPES, 1% Triton, 10 mM Sodium Beta-Glycerophosphate, 10 mM Sodium Pyrophosphate, 2.5 mM MgCl2 and protease inhibitors). The Flag-WDR24/endogenous-Sestrin2 complex was isolated as follows: crude lysate (equivalent to 2-4 mg of total protein) in a volume of 1 ml was subjected to immunoprecipitation (IP) with 30 μl of anti-flag resin (SIGMA) for 2 hours at 4° C., washed twice in cold lysis buffer plus 0.5M NaCl and resuspended in 1 ml of cold cytosolic buffer (40 mM HEPES pH 7.4, 140 mM KCl, 10 mM NaCl, 2.5 mM MgCl2, 0.1% TritonX-100). Compounds were then added to each sample at a given concentration of 25 μM and incubated with rotation at 4° C. for 30 minutes. After the incubation period, samples were centrifuged to pellet the Flag-WDR24/endogenous-Sestrin2 complex bound to the anti-flag resin, the supernatant was completely removed and resin was resuspended in sodium dodecyl sulfate-polyacrylamide gel electrophoresis (SDS-PAGE) sample buffer and boiled for 5 minutes. […]

| Structure (SMILES) | Activity of Leucine: % Activity |
| --- | --- |
| CC(=O)N[C@@H](CC(C)C)C(=O)O [Compound I-36, (S)-2-acetamido-4-methylpentanoic Acid] | B (a % activity relative to leucine of ≤−40%) |
| CC(C)C[C@H](NC(=O)c1ccccc1)C(=O)O [Compound I-15, (S)-2-benzamido-4-methylpentanoic Acid] | C (a % activity relative to leucine of between -40 and 40%) |
| CC[C@@H](C)[C@H](N)C(=O)O [Compound I-29] | A (a % activity relative to leucine of ≥40%) |
| N[C@@H](CC(F)(F)F)C(=O)O [Compound I-4, (S)-2-amino-4,4,4-trifluorobutanoic Acid] | C (a % activity relative to leucine of between -40 and 40%) |
| N[C@@H](CC1CC1)C(=O)O [Compound I-35] | A (a % activity relative to leucine of ≥40%) |
| CC(C)C[C@H](Nc1ccccc1)C(=O)O [Compound I-26, (S)-4-methyl-2-(phenylamino)pentanoic Acid] | C (a % activity relative to leucine of between -40 and 40%) |
| CC(C)C[C@H](NS(C)(=O)=O)C(=O)O [Compound I-19, (S)-4-methyl-2-(methylsulfonamido)pentanoic Acid] | C (a % activity relative to leucine of between -40 and 40%) |
| CC(C)[C@H](N)C(=O)O [Compound I-28] | C (a % activity relative to leucine of between -40 and 40%) |
| CC(C)C[C@](C)(N)C(=O)O [Compound I-32] | A (a % activity relative to leucine of ≥40%) |
| CC(C)C[C@H](N)C(=O)NC(C)C [Compound I-166] | C (a % activity relative to leucine of between -40 and 40%) |
| CC(C[C@H](N)C(=O)O)C(F)(F)F (stereo in doubt) [Compound I-145, (2S,4R)-2-amino-5,5,5-trifluoro-4-methylpentanoic Acid] | A (a % activity relative to leucine of ≥40%) |
| CC(C)C[C@H](N)CC(=O)O [Compound I-34] | C (a % activity relative to leucine of between -40 and 40%) |
| CC(C)C[C@H](NCc1ccccc1)C(=O)O [Compound I-11, (S)-2-(benzylamino)-4-methylpentanoic Acid] | C (a % activity relative to leucine of between -40 and 40%) |
| CN(C)[C@@H](CC(C)(C)C)C(N)=O [Compound I-158] | C (a % activity relative to leucine of between -40 and 40%) |
| CC(C)C[C@H](N)C(=O)N1CCCC[C@H]1C [Compound I-161] | C (a % activity relative to leucine of between -40 and 40%) |
| CC(C)C[C@H](N)B1OC(C)(C)C(C)(C)O1 [Compound I-38] | C (a % activity relative to leucine of between -40 and 40%) |
| CC(C)C[C@H](N)C(=O)NS(=O)(=O)c1ccccc1 [Compound I-148] | A (a % activity relative to leucine of ≥40%) |
| CC(C)C[C@H](NC(=O)C1CCCCC1)C(=O)O [Compound I-22, (S)-2-(Cyclohexanecarboxamido)-4-methylpentanoic Acid] | C (a % activity relative to leucine of between -40 and 40%) |
| CC(C)CN[C@@H](CC(C)C)C(=O)O [Compound I-14, (S)-2-(isobutylamino)-4-methylpentanoic Acid] | B (a % activity relative to leucine of ≤−40%) |

| Structure (SMILES) | Activity of Leucine: % Activity |
| --- | --- |
| CC(C)C[C@H](NC(C)C)C(=O)O [Compound I-13, (S)-2-(isopropylamino)-4-methylpentanoic Acid] | C (a % activity relative to leucine of between -40 and 40%) |
| COC(=O)/C=C/C(=O)N[C@@H](CC(C)C)C(=O)O [Compound I-45, (S,E)-2-(4-methoxy-4-oxobut-2-enamido)-4-methylpentanoic Acid] | B (a % activity relative to leucine of ≤−40%) |
| CN(C)[C@@H](CC(C)(C)C)C(=O)O [Compound I-159] | A (a % activity relative to leucine of ≥40%) |
| CC(C)C[C@H](NC(=O)C(C)C)C(=O)O [Compound I-16, (S)-2-isobutyramido-4-methylpentanoic Acid] | C (a % activity relative to leucine of between -40 and 40%) |
| N[C@H](CC(F)(F)F)C(=O)O [Compound I-5, (R)-2-amino-4,4,4-trifluorobutanoic Acid] | B (a % activity relative to leucine of ≤−40%) |
| CC(C)C[C@@H](N)S(=O)(=O)O [Compound I-156] | C (a % activity relative to leucine of between -40 and 40%) |
| CC(C)C[C@H](N)C(=O)N(C)CC(C)C [Compound I-152] | C (a % activity relative to leucine of between -40 and 40%) |
| Cl.N[C@@H](CCCCC(F)(F)F)C(=O)O [Compound I-2, (S)-2-amino-7,7,7-trifluoroheptanoic Acid Hydrochloride] | B (a % activity relative to leucine of ≤−40%) |
| Cl.N[C@H](CCCCC(F)(F)F)C(=O)O [Compound I-3, (R)-2-amino-7,7,7-trifluoroheptanoic Acid Hydrochloride] | B (a % activity relative to leucine of ≤−40%) |
| CC(C)(C)C[C@H](N)C(N)=O [Compound I-48] | C (a % activity relative to leucine of between -40 and 40%) |
| CN[C@@H](CC(C)C)C(=O)O.Cl [Compound I-24] | A (a % activity relative to leucine of ≥40%) |
| CC(C)C(F)(F)[C@@H](N)C(=O)O [Compound I-47, (S)-2-amino-3,3-difluoro-4-methylpentanoic Acid] | C (a % activity relative to leucine of between -40 and 40%) |
| CC(C)C[C@H](N)C(=O)N(C)C [Compound I-149] | C (a % activity relative to leucine of between -40 and 40%) |
| CC(C)C[C@H](N)C(=O)NC(C)(C)C [Compound I-165] | A to C |
| CC(C)C[C@H](N)C(=O)N(C(C)C)C(C)C [Compound I-150] | C (a % activity relative to leucine of between -40 and 40%) |
| CC(C)C[C@@H](N)B1OC(C)(C)C(C)(C)O1 [Compound I-10] | C (a % activity relative to leucine of between -40 and 40%) |
| CC(C)C[C@H](N)C(=O)N(CC(C)C)CC(C)C [Compound I-155] | C (a % activity relative to leucine of between -40 and 40%) |
| CC(C)CNC(=O)[C@@H](N)CC(C)C [Compound I-160] | C (a % activity relative to leucine of between -40 and 40%) |
